Test results reported in US5677285A, “Derivatives of neuraminic acid” (Fidia S.P.A., priority 1992, dated 1997).

Tested on: C1300 mouse neuroblastoma cells, Neuro-2a clone
Assay: Neuritogenic activity (cells with neurites, optical microscopy)
Format: cell-based
Method: C1300 mouse neuroblastoma cells, Neuro-2a clone, (American Cell Type Culture Collection, Bethesda, Md.) were grown at a density of 10,000 cells/well in a culture medium containing Dulbecco's modified Eagle medium (DMEM, Flow), 10% fetal calf serum (FCS, batch IP 02, Seromed), penicillin (100 units per ml, Irvine), and L-glutamine (2 mM, Sigma). Cells were incubated at 37° C. for 24 hours, and medium was removed and substituted with 350 μl of fresh medium plus compounds to be tested.
Tested Compounds and Their Solubilization
Compounds ND35 and ND37 were solubilized at a concentration of 1×10^-2 M in dimethylsulfoxide (1% DMSO). For the different compounds, progressive dilutions in culture medium were performed (concentrations from 1×10^-5 to 1×10^-4 M).
Neuritogenic activity (cell number with neurites, optical microscopy)
Culture plates were incubated with compounds to be tested and analyzed using a phase contrast microscope (250×). Nine fields with prefixed coordinates were chosen and photographed. Then the total number of cells and those with neurites (length at least double the cell diameter) were counted in blind in each photograph. The percentage of cells with neurites was determined after counting of at least 100 cells (Facci L. et al.: Promotion of neuritogenesis in mouse neuroblastoma cells by exogenous ganglioside GM1. J. Neurochem. Raven Press, New York, 299-305,1984).

CCCCCCCCCCCCCCCC(=O)NC1C(O)CC(OCC)(C(=O)NCCCN(C)C)OC1C(O)C(O)CO (centres unmarked) [ND35, 2-ethylglycoside of N-palmitoyl-neuraminic acid dimethylaminopropylamide]
Cells with neurities (%) (1 × 10^-4 M): 39 ± 7%
Cells with neurities (%) (1 × 10^-5 M): 7 ± 2%
neuritogenesis in vitro (1×10^-5 to 1×10^-4 M): induce neuritogenesis
Cells with neurities (%) (2.5 × 10^-5 M): 7 ± 3%
Cells with neurities (%) (5 × 10^-5 M): 28 ± 7%
